What was measured:
[1] = molecular target: T1, Human GPR120 short form (Homo sapiens, UniProt Q5NUL3); assay: Human GPR120 calcium flux assay, Procedure Calcium B (4200 cells/well); format: cell-based
T1 construct: expressed in transfected cells
T1 sequence (Q5NUL3 1-361): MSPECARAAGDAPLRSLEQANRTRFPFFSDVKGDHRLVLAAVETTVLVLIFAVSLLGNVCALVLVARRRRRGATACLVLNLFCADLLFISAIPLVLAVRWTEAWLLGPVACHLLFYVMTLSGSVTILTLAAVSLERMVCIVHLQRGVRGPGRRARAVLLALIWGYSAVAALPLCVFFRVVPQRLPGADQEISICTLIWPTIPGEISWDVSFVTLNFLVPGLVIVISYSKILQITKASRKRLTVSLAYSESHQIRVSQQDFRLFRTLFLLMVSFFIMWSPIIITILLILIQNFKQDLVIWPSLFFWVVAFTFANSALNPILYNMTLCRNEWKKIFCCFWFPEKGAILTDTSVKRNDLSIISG
In short: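 Agonist EC50 came from a four-parameter fit of RFU (Fmax−Fmin) read over 300 s on FLIPR. Cells were HEK293 stably transfected with human GPR120 (NM_001195755.1) at 4200 per well, serum-starved 1 h and loaded with Fluo-4 NW dye with probenecid before ligand addition.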

[2] = molecular target: T2, human GPR40 (Homo sapiens, UniProt O14842); assay: GPR40 calcium flux assay, human GPR40; format: cell-based; settings: HEK293 cells stably expressing GPR40; table does not say human or rat
T2 construct: expressed in transfected cells
In short: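 Cells preincubated 1 h at 37° C. in HBSS, 20 mM HEPES, 0.1% BSA, then Fluo 8 calcium dye 30 min at 37° C. and 15 min at room temperature.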

T2 sequence (O14842 whole entry): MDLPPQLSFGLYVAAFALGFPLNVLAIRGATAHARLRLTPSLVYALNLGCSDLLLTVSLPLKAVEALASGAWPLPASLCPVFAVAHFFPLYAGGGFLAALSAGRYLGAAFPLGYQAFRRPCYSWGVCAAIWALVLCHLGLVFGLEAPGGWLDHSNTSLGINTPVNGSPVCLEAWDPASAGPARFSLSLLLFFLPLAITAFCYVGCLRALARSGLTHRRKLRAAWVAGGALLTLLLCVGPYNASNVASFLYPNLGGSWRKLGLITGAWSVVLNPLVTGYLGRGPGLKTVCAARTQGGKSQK

EC50 [1] [nM] | EC50 [2] [nM] | SMILES
1430 | 199 | CC(C)CCC1=C(COc2ccc(CCC(=O)O)c(C(F)(F)F)c2)CCC1 [Compound 374, 3-[4-[(2-isopentylcyclopenten-1-yl)methoxy]-2-(trifluoromethyl)phenyl]Propanoic Acid]
88 | 962 | Cc1cc(OCC2=C(c3ccc(Cl)cc3)CC(F)(F)C2)c(F)cc1CCC(=O)O [Compound 375]
493 | 42 | CC(C)C1=C(COc2ccc(CCC(=O)O)c(C(F)(F)F)c2)CCC1 [Compound 377, 3-[4-[(2-isopropylcyclopenten-1-yl)methoxy]-2-(trifluoromethyl)phenyl]Propanoic Acid]
> 5000 | 84 | CCC(CC)C1=C(COc2ccc(CCC(=O)O)c(C(F)(F)F)c2)CCC1 [Compound 380, 3-[4-[[2-(1-ethylpropyl)cyclopenten-1-yl]methoxy]-2-(trifluoromethyl)phenyl]Propanoic Acid]
1650 | 150 | CC(C)CC1=C(COc2ccc(CCC(=O)O)c(C(F)(F)F)c2)CC(F)(F)C1 [Compound 381, 3-[4-[(4,4-difluoro-2-isobutyl-cyclopenten-1-yl)methoxy]-2-(trifluoromethyl)phenyl]Propanoic Acid]
635 | 46 | O=C(O)CCc1ccc(OCC2=C(C3CCC3)CC(F)(F)C2)cc1C(F)(F)F [Compound 382, 3-[4-[(2-cyclobutyl-4,4-difluoro-cyclopenten-1-yl)methoxy]-2-(trifluoromethyl)phenyl]Propanoic Acid]
677 | 635 | CC(C)CC1=C(COc2ccc(CCC(=O)O)cc2)CCC1 [Compound 384, 3-[4-[(2-isobutylcyclopenten-1-yl)methoxy]phenyl]Propanoic Acid]
708 | 12 | CC(C)CC1=C(COc2ccc(CCC(=O)O)c(C(F)(F)F)c2)CCC1 [Compound 385, 3-(4-((2-isobutylcyclopent-1-en-1-yl)methoxy)-2-(trifluoromethyl)phenyl)Propanoic Acid]
1700 | 92 | O=C(O)CCc1ccc(OCC2=C(C3CCCCC3)CCC2)cc1C(F)(F)F [Compound 386, 3-[4-[(2-cyclohexylcyclopenten-1-yl)methoxy]-2-(trifluoromethyl)phenyl]Propanoic Acid]
> 5000 | 71 | CC(C)(C)CC1=C(COc2ccc(CCC(=O)O)c(C(F)(F)F)c2)CCC1 [Compound 387, 3-[4-[[2-(2,2-dimethylpropyl)cyclopenten-1-yl]methoxy]-2-(trifluoromethyl)phenyl]Propanoic Acid]
1630 | 86 | CCC(C)C1=C(COc2ccc(CCC(=O)O)c(C(F)(F)F)c2)CCC1 (centres unmarked) [Compound 388, 3-[4-[(2-sec-butylcyclopenten-1-yl)methoxy]-2-(trifluoromethyl)phenyl]Propanoic Acid]
750 | 51 | CCCC1=C(COc2ccc(CCC(=O)O)c(C(F)(F)F)c2)CCC1 [Compound 389, 3-[4-[(2-propylcyclopenten-1-yl)methoxy]-2-(trifluoromethyl)phenyl]Propanoic Acid]
1190 | 23 | O=C(O)CCc1ccc(OCC2=C(C3CC4CCC3C4)CCC2)cc1C(F)(F)F (centres unmarked) [Compound 390, 3-[4-[(2-norbornan-2-ylcyclopenten-1-yl)methoxy]-2-(trifluoromethyl)phenyl]Propanoic Acid]
223 | 1400 | Cc1cc(OCC2=C(c3ccc(Br)cc3)CC(F)(F)C2)c(F)cc1CCC(=O)O [Compound 392, 3-[4-[[2-(4-bromophenyl)-4,4-difluoro-cyclopenten-1-yl]methoxy]-5-fluoro-2-methyl-phenyl]Propanoic Acid]
291 | 420 | O=C(O)CCc1ccc(OCC2=C(c3ccc(Br)cc3)CC(F)(F)C2)cc1Cl [Compound 393, 3-[4-[[2-(4-bromophenyl)-4,4-difluoro-cyclopenten-1-yl]methoxy]-2-chloro-phenyl]Propanoic Acid]

The remaining lines, values behind:

SMILES | EC50 [1] [nM] | EC50 [2] [nM]
O=C(O)CCc1ccc(OCC2=C(Cc3ccc(F)cc3)CCC2)cc1C(F)(F)F [Compound 353, 3-[4-[[2-[(4-fluorophenyl)methyl]cyclopenten-1-yl]methoxy]-2-(trifluoromethyl)phenyl]Propanoic Acid] | 1330 | 46
O=C(O)CCc1ccc(OCC2=C(C3=CCCCC3)CCC2)cc1C(F)(F)F [Compound 354, 3-[4-[[2-(cyclohexen-1-yl)cyclopenten-1-yl]methoxy]-2-(trifluoromethyl)phenyl]Propanoic Acid] | 1770 | 825
O=C(O)CCc1ccc(OCC2=C(C3=CCCCC3)CCC2)cc1Cl [Compound 355, 3-[2-chloro-4-[[2-(cyclohexen-1-yl)cyclopenten-1-yl]methoxy]phenyl]Propanoic Acid] | > 5000 | 3690
O=C(O)CCc1ccc(OCC2=C(Cc3ccc(Cl)cc3)CCC2)cc1Cl [Compound 356, 3-[2-chloro-4-[[2-[(4-chlorophenyl)methyl]cyclopenten-1-yl]methoxy]phenyl]Propanoic Acid] | 2540 | 68
Cc1cc(OCC2=C(Cc3ccccc3)CC(F)(F)C2)c(F)cc1CCC(=O)O [Compound 357, 3-[4-[(2-benzyl-4,4-difluoro-cyclopenten-1-yl)methoxy]-5-fluoro-2-methyl-phenyl]Propanoic Acid] | 664 | 653
O=C(O)CCc1ccc(OCC2=C(Cc3ccccc3)CC(F)(F)C2)cc1C(F)(F)F [Compound 358, 3-[4-[(2-benzyl-4,4-difluoro-cyclopenten-1-yl)methoxy]-2-(trifluoromethyl)phenyl]Propanoic Acid] | 951 | 65
O=C(O)CCc1ccc(OCC2=C(Cc3ccc(Cl)cc3)CCC2)cc1C(F)(F)F [Compound 359, 3-[4-[[2-[(4-chlorophenyl)methyl]cyclopenten-1-yl]methoxy]-2-(trifluoromethyl)phenyl]Propanoic Acid] | 3110 | 81
Cc1cc(OCC2=C(Cc3ccc(Cl)cc3)CCC2)c(F)cc1CCC(=O)O [Compound 360, 3-[4-[[2-[(4-chlorophenyl)methyl]cyclopenten-1-yl]methoxy]-5-fluoro-2-methyl-phenyl]Propanoic Acid] | > 5000 | 972
O=C(O)CCc1ccc(OCC2=C(Cc3cccc(F)c3)CCC2)cc1C(F)(F)F [Compound 361, 3-[4-[[2-[(3-fluorophenyl)methyl]cyclopenten-1-yl]methoxy]-2-(trifluoromethyl)phenyl]Propanoic Acid] | 3300 | 131
O=C(O)CCc1ccc(OCC2=C(Cc3cccc(F)c3)CCC2)cc1Cl [Compound 362, 3-[2-chloro-4-[[2-[(3-fluorophenyl)methyl]cyclopenten-1-yl]methoxy]phenyl]Propanoic Acid] | > 5000 | 159
Cc1cc(OCC2=C(Cc3cccc(F)c3)CCC2)c(F)cc1CCC(=O)O [Compound 363, 3-[5-fluoro-4-[[2-[(3-fluorophenyl)methyl]cyclopenten-1-yl]methoxy]-2-methyl-phenyl]Propanoic Acid] | > 5000 | 1700
O=C(O)CCc1ccc(OCC2=C(Cc3ccccc3)CC(F)(F)C2)cc1Cl [Compound 364, 3-[4-[(2-benzyl-4,4-difluoro-cyclopenten-1-yl)methoxy]-2-chloro-phenyl]Propanoic Acid] | 891 | 49
CCCCC1=C(COc2ccc(CCC(=O)O)cc2)CCC1 [Compound 365] | 496 | 991
CC1CCC(c2ccccc2)=C1COc1ccc(CCC(=O)O)cc1 (centres unmarked) [Compound 366, 3-[4-[(5-methyl-2-phenyl-cyclopenten-1-yl)methoxy]phenyl]Propanoic Acid] | 1140 | > 10000
CC1CCC(c2ccccc2)=C1COc1ccc(CCC(=O)O)c(C(F)(F)F)c1 (centres unmarked) [Compound 367, 3-[4-[(5-methyl-2-phenyl-cyclopenten-1-yl)methoxy]-2-(trifluoromethyl)phenyl]Propanoic Acid] | 1140 | 1510
O=C(O)CCc1ccc(OCC2=C(CC3CCCCC3)CCC2)cc1C(F)(F)F [Compound 369, 3-[4-[[2-(cyclohexylmethyl)cyclopenten-1-yl]methoxy]-2-(trifluoromethyl)phenyl]Propanoic Acid] | > 5000 | 125
CCCCC1=C(COc2ccc(CCC(=O)O)c(C(F)(F)F)c2)CCC1 [Compound 370, 3-[4-[(2-butylcyclopenten-1-yl)methoxy]-2-(trifluoromethyl)phenyl]Propanoic Acid] | 1150 | 133
O=C(O)CCc1ccc(OCC2=C(CCc3ccccc3)CCC2)cc1C(F)(F)F [Compound 372, 3-[4-[(2-phenethylcyclopenten-1-yl)methoxy]-2-(trifluoromethyl)phenyl]Propanoic Acid] | 2350 | 197
Cc1cc(OCC2=C(C3CC3)CCC2)c(F)cc1CCC(=O)O [Compound 373, 3-[4-[(2-cyclopropylcyclopenten-1-yl)methoxy]-5-fluoro-2-methyl-phenyl]Propanoic Acid] | 1450 | 2380

Reference: US11230526B1, “Cylcoalkenyl derivatives useful as agonists of the GPR120 and/or GPR40 receptors” (Janssen Pharmaceutica NV, priority 2018, dated 2022)
